# Results taken from patent publication US20110144079A1, “ANTIMICROBIAL SYSTEM” (priority 2008, published 2011).
# System: S. aureus PIII
# Test: Broth microdilution MIC
# Assay type: cell-based
# Details: not given
# Experimental: (§1) Broth microdilution tests were performed according to NCCLS guidelines. Serial two-fold dilutions of each imidazolium salt (from an original working solution which had been 0.22 μm sterile filtered) in Mueller-Hinton Broth (MHB) (100 μl) were prepared in 96-well micro-titre plates over the range 0.0000625-1% w/v. The inoculum to be tested was prepared by adjusting the turbidity of an actively overnight growing broth culture in MHB to an optical density at 550 nm equivalent to 1×10^8 CFU/ml. The suspension was further diluted to provide a final inoculum density of 2×10^5 CFU/ml in MHB as verified by total viable count. The inoculum to be tested (100 μl, 2×10^5 CFU ml^−1) was added to each well of the microdilution trays which were incubated aerobically for 24 h at 37° C. Positive and negative growth controls were included in every assay (6 replicates). After determining the MICs, minimum bactericidal concentrations (MBCs) were determined by spreading 20 μl of suspension from wells showing no growth onto MHA plates, which were then incubated for 24 h and examined for 99.9% killing.
row,Structure (SMILES),MIC [µM]
1,CCCCCCCCCCCCCCCCCC[n+]1cccc2ccccc21.[Br-] [1-alkyl-3-quinolinium bromides 18],209.76

# System: S. epidermidis ATCC 35984
# Test: Broth microdilution MIC/MBC
# Assay type: cell-based
# Details: S. epidermidis ATCC 35984, 24 h at 37° C.
# Experimental: as §1
row,Structure (SMILES),MIC [µM]
1,CCCCCCCCCCCCCCCCCC[n+]1cccc2ccccc21.[Br-] [1-alkyl-3-quinolinium bromides 18],104.88

# System: P. mirabilis NCTC 12442
# Test: Broth microdilution MIC/MBC
# Assay type: cell-based
# Details: P. mirabilis NCTC 12442, 24 h at 37° C.
# Experimental: as §1
row,Structure (SMILES),MIC [µM]
1,CCCCCCCCCCCCCCCCCC[n+]1cccc2ccccc21.[Br-] [1-alkyl-3-quinolinium bromides 18],104.88

# System: E. coli NCTC 8196
# Test: Broth microdilution MIC/MBC
# Assay type: cell-based
# Details: E. coli NCTC 8196, 24 h at 37° C.
# Experimental: as §1
row,Structure (SMILES),MIC [µM]
1,CCCCCCCCCCCCCCCCCC[n+]1cccc2ccccc21.[Br-] [1-alkyl-3-quinolinium bromides 18],104.88

# System: P. aeruginosa PA01
# Test: Broth microdilution MIC/MBC
# Assay type: cell-based
# Details: P. aeruginosa PA01, 24 h at 37° C.; read-out: MIC
# Experimental: as §1
row,Structure (SMILES),MIC [µM]
1,CCCCCCCCCCCCCCCCCC[n+]1cccc2ccccc21.[Br-] [1-alkyl-3-quinolinium bromides 18],419.52

# System: C. tropicalis NCTC 7393
# Test: Broth microdilution MIC/MBC
# Assay type: cell-based
# Details: C. tropicalis NCTC 7393, 24 h at 37° C.
# Experimental: as §1
row,Structure (SMILES),MIC [µM]
1,CCCCCCCCCCCCCCCCCC[n+]1cccc2ccccc21.[Br-] [1-alkyl-3-quinolinium bromides 18],104.88

# System: E-MRSA 15
# Test: Broth microdilution MIC/MBC
# Assay type: cell-based
# Details: E-MRSA 15, 24 h at 37° C.
# Experimental: as §1
row,Structure (SMILES),MIC [µM]
1,CCCCCCCCCCCCCCCCCC[n+]1cccc2ccccc21.[Br-] [1-alkyl-3-quinolinium bromides 18],209.76

# System: B. cereus
# Test: Broth microdilution MIC/MBC
# Assay type: cell-based
# Details: 24 h at 37° C.
# Experimental: as §1
row,Structure (SMILES),MIC [µM]
1,CCCCCCCCCCCCCCCCCC[n+]1cccc2ccccc21.[Br-] [1-alkyl-3-quinolinium bromides 18],419.52

# System: K. aerogenes NCTC 7427
# Test: Broth microdilution MIC/MBC
# Assay type: cell-based
# Details: K. aerogenes NCTC 7427, 24 h at 37° C.
# Experimental: as §1
row,Structure (SMILES),MIC [µM]
1,CCCCCCCCCCCCCCCCCC[n+]1cccc2ccccc21.[Br-] [1-alkyl-3-quinolinium bromides 18],104.88

# System: S. epidermidis ATCC 35984
# Test: Biofilm assay (Calgary Biofilm Device), MBEC
# Assay type: cell-based
# Details: S. epidermidis ATCC 35984 24 h biofilm, 24 h challenge
# Experimental: (§2) Biofilms of each test organism were grown in the Calgary Biofilm Device (commercially available as the MBEC Assay™ for Physiology & Genetics, Innovotech Inc., Edmonton, Alberta, Canada). The device, a micro-titre plated based assay, consists of two parts; a microtitre plate containing the inoculated test medium and a polystyrene lid with 96 identical pegs on which the microbial biofilm forms under gyrorotary incubation. The biofilm assay was conducted according to the MBEC™ assay protocol as supplied by the manufacturer, with slight modifications. Inocula of each test organism were prepared in MHB as described above and adjusted to provide a final inoculum density of ˜10^7 CFU ml^−1 (as confirmed by viable count). 150 μl of the inoculated media was transferred to each well of the 96-well microtitre plate and the assay plate lid, bearing 96 pegs was placed into the microtitre plate. The MBEC assay plates were placed in a gyrorotary incubator (37° C., 95% relative humidity) for 24 h to permit growth and comparison of 24 h biofilms of each test strain. Positive and negative growth controls were included in each plate (6 replicates). Initial and 24 h planktonic viable counts were measured, as were 24 h biofilm counts, expressed as CFU peg^−1, according to manufacturers instructions. After 24 h, the peg lid of the MBEC assay plate was gently rinsed three times. After rinsing, the peg lid of the MBEC assay was transferred to a ‘challenge’ plate. Serial dilutions of each imidazolium salt were prepared in 200 μl of MHB containing various concentrations of IL in each well. Positive growth control and sterility control were included in each assay plate. […] Biofilms were dislodged into recovery media by sonication for 5 minutes and the peg lid discarded. The recovery plate is incubated overnight and visually checked after 24 h for turbidity. In addition, optical density measurements for each plate were recorded at 550 nm. Clear wells were taken as evidence of biofilm eradication and the MBEC value was assigned as the lowest concentration at which no growth was observed after 24 h incubation. Plates were incubated for a further 24 h to confirm biofilm eradication concentrations.
row,Structure (SMILES),MBEC [µM]
1,CCCCCCCCCCCCCCCCCC[n+]1cccc2ccccc21.[Br-] [1-alkyl-3-quinolinium bromides 18],1678.08

# System: P. mirabilis NCTC 12442
# Test: Biofilm assay (Calgary Biofilm Device), MBEC
# Assay type: cell-based
# Details: P. mirabilis NCTC 12442 24 h biofilm, 24 h challenge
# Experimental: as §2
row,Structure (SMILES),MBEC [µM]
1,CCCCCCCCCCCCCCCCCC[n+]1cccc2ccccc21.[Br-] [1-alkyl-3-quinolinium bromides 18],3356.16

# System: S. aureus PIII
# Test: Biofilm assay (Calgary Biofilm Device), MBEC
# Assay type: cell-based
# Details: S. aureus PIII 24 h biofilm, 24 h challenge
# Experimental: as §2
row,Structure (SMILES),MBEC [µM]
1,CCCCCCCCCCCCCCCCCC[n+]1cccc2ccccc21.[Br-] [1-alkyl-3-quinolinium bromides 18],3356.16

# System: E. coli NCTC 8196
# Test: Biofilm assay (Calgary Biofilm Device), MBEC
# Assay type: cell-based
# Details: E. coli NCTC 8196 24 h biofilm, 24 h challenge
# Experimental: as §2
row,Structure (SMILES),MBEC [µM]
1,CCCCCCCCCCCCCCCCCC[n+]1cccc2ccccc21.[Br-] [1-alkyl-3-quinolinium bromides 18],1678.08

# System: P. aeruginosa PA01
# Test: Biofilm assay (Calgary Biofilm Device), MBEC
# Assay type: cell-based
# Details: P. aeruginosa PA01 24 h biofilm, 24 h challenge
# Experimental: as §2
row,Structure (SMILES),MBEC [µM]
1,CCCCCCCCCCCCCCCCCC[n+]1cccc2ccccc21.[Br-] [1-alkyl-3-quinolinium bromides 18],6712.32

# System: C. tropicalis NCTC 7393
# Test: Biofilm assay (Calgary Biofilm Device), MBEC
# Assay type: cell-based
# Details: C. tropicalis NCTC 7393 24 h biofilm, 24 h challenge
# Experimental: as §2
row,Structure (SMILES),MBEC [µM]
1,CCCCCCCCCCCCCCCCCC[n+]1cccc2ccccc21.[Br-] [1-alkyl-3-quinolinium bromides 18],1678.08

# System: E-MRSA 15
# Test: Biofilm assay (Calgary Biofilm Device), MBEC
# Assay type: cell-based
# Details: E-MRSA 15 24 h biofilm, 24 h challenge
# Experimental: as §2
row,Structure (SMILES),MBEC [µM]
1,CCCCCCCCCCCCCCCCCC[n+]1cccc2ccccc21.[Br-] [1-alkyl-3-quinolinium bromides 18],1678.08

# System: B. cereus
# Test: Biofilm assay (Calgary Biofilm Device), MBEC
# Assay type: cell-based
# Details: B. cereus 24 h biofilm, 24 h challenge
# Experimental: as §2
row,Structure (SMILES),MBEC [µM]
1,CCCCCCCCCCCCCCCCCC[n+]1cccc2ccccc21.[Br-] [1-alkyl-3-quinolinium bromides 18],3356.16

# System: K. aerogenes NCTC 7427
# Test: Biofilm assay (Calgary Biofilm Device), MBEC
# Assay type: cell-based
# Details: K. aerogenes NCTC 7427 24 h biofilm, 24 h challenge
# Experimental: as §2
row,Structure (SMILES),MBEC [µM]
1,CCCCCCCCCCCCCCCCCC[n+]1cccc2ccccc21.[Br-] [1-alkyl-3-quinolinium bromides 18],6712.32
